Measured values published in the NIST ThermoML archive (doi:10.1016/j.tca.2013.07.012).

Test: xn = mol fraction of the nth substance listed
Conditions: 101 kPa, Liquid, Vibrating tube method

OCC(O)CO [glycerol] + O
mass density [kg/m3]
Conditions	298.15 K	308.15 K	323.15 K	333.15 K	348.15 K
x1 = 0.00209	–	996.42	990.39	985.55	977.18
x1 = 0.00439	1002.17	999.06	992.99	988.13	979.74
x1 = 0.0051	1002.98	999.87	993.77	988.9	980.52
x1 = 0.00657	1004.67	1001.52	995.4	990.52	982.12
x1 = 0.01072	1009.34	1006.11	999.9	994.98	986.55
x1 = 0.01633	1015.48	1012.13	1005.81	1000.85	992.29
x1 = 0.03504	1034.47	1030.74	1024.15	1018.99	1010.23
x1 = 0.05086	1049.05	1045.04	1038.23	1032.9	1024.05
x1 = 0.06775	1063.23	1058.94	1051.86	1046.46	1037.5
x1 = 0.1127	1095.24	1090.4	1082.82	1077.08	1067.8
x1 = 0.1559	1119.87	1114.62	1106.34	1100.45	1090.81
x1 = 0.206	1142.86	1137.3	1128.58	1122.53	1112.88
x1 = 0.256	1161.34	1155.48	1146.57	1140.39	1130.45
x1 = 0.3311	1183	1177.16	1168.09	1161.69	1151.47
x1 = 0.4012	1198.45	1192.55	1183.35	1177	1166.73
x1 = 0.4907	1213.75	1207.7	1198.19	1191.81	1181.85
x1 = 0.5828	1225.65	1219.6	1210.22	1203.79	1193.86
x1 = 0.6857	1236.32	1230.18	1220.77	1214.31	1204.27
x1 = 0.7494	1241.81	1235.6	1226.23	1219.8	1209.73
x1 = 0.8101	1246.48	1240.19	1230.76	1224.29	1214.26
x1 = 0.8528	1249.4	1243.15	1233.67	1227.21	1217.21
x1 = 0.882	1251.36	1245.07	1235.56	1229.08	1219.1
x1 = 0.9143	1253.31	1247.06	1237.53	1231.07	1221.08
x1 = 0.9408	1254.8	1248.55	1239.01	1232.59	1222.63
x1 = 0.9578	1255.73	1249.47	1239.93	1233.52	1223.59
x1 = 0.9792	1256.89	1250.63	1241.1	1234.68	1224.76
x1 = 0.9895	1257.41	1251.16	1241.61	1235.2	1225.28
x1 = 1	1257.91	1251.66	1242.11	1235.71	1225.79
